Data from US20150291597A1, “NOVEL ORALLY BIOAVAILABLE BREATHING CONTROL MODULATING COMPOUNDS, AND METHODS OF USING SAME” (Galleon Pharmaceuticals, Inc., priority 2012, published 2015).

How the values were obtained:
[1] = Pharmacokinetics and oral bioavailability in the rat (IV and PO dosing, plasma LC-MS/MS); type: in vivo, Sprague-Dawley rats; conditions: Sprague-Dawley, oral versus intravenous dosing
Description: Sprague-Dawley rats (200-300 g) were fed a standard laboratory rodent diet and housed in individual cages on a 12-hour light and 12-hour dark cycle with room temperature maintained at 22±3° C. and relative humidity at 50±20%. Rats were fasted overnight before dosing, with food returned after the 6 hour blood samples were obtained. Bedding was removed until after the 6 hour blood samples were obtained. Water was provided ad libitum throughout the study.
Dosing solution of test compound was prepared in desired oral formulation for oral administration via gavage needle at 10-30 mg/kg (10 mL/kg) to three or four rats. All blood samples (250 uL per sample) were taken via jugular vein or femoral vein at 0 (predose), 15, and 30 min and 1, 2,4, 6, 8, and 24 h after oral dosing. […]
Plasma samples (incurred study samples, calibration standards, quality controls) were normally prepared as follows. […] Calibration standards were typically prepared in the range of 2 ng/ml to 10 μg/mL for quantitation. […]
All pharmacokinetic parameters were determined based on a non-compartmental approach using WinNonlin software (Pharsight, Version 5.1). The terminal elimination half-life (t1/2) was calculated as ln2/λz using the slope (λz) from linear regression analysis of the terminal phase of the plasma concentration-time curve on a semi-log scale. […]

anesthetized rats = assay: Anesthetized rat spirometry screening assay (respiratory rate, tidal volume, minute volume; IV bolus); type: in vivo; conditions: 0.3 mg/kg IV bolus
From the text: Anesthetized rats provide a quick method of screening compounds for respiratory and cardiovascular activity. In contrast to the conscious rat model, this model offers an experimental set up with less variation in the baseline cardiovascular and respiratory measures. Compounds screened in this assay may be examined in a conscious rat model.
Rats were initially anesthetized with 3% isoflurane (inhaled) and femoral artery and vein cannulas were surgically inserted. Once cannulated, the rats were transitioned to urethane anesthesia (1.5 g/kg; i.v.) and a tracheal cut-down was performed. After placing the tracheal cannula, it was connected to a pneumotach to record respiratory airflow from which respiratory rate (RR), tidal volume (VT), and their product minute volume were derived. After the surgical preparation was complete, animals were allowed to stabilize for 30 minutes while respiratory rate, tidal volume, minute volume, blood pressure and heart rate were recorded continuously. Arterial blood gases (ABG) were obtained from arterial blood collected from the femoral artery. ABG measurements were taken before and 6 minutes after vehicle and each dose of compound administered. Compounds being screened were administered via bolus injections through the venous cannula followed by a saline flush (total time of administration is approximately 30 seconds), and the animal was monitored for at least 6 minutes for changes in cardiovascular efforts. Compounds were prepared in formulations identified to ensure optimal solubility. As such, vehicle controls were matched for the formulation of each compound tested. Dosing of the compound being screened was 0.1 and 0.3 mg/kg. The next dose was not administered until all cardiovascular and respiratory measures had returned to baseline levels. The positive control compounds used were N-[4,6-di-(n-propylamino)-[1,3,5]triazin-2-yl]-O,N-dimethyl-hydroxylamine or N-[2,6-di-(n-propylamino)-[1,3]pyrimidin-4-yl]-O,N-dimethyl-hydroxylamine, both administered at the end of each screening experiment (0.3 mg/kg dose) to validate the experiment and also to serve as a measure with which the compound being screened could be compared.
Data were analyzed by collecting cardiovascular and respiratory data in 30 second averages (BINs). Data were plotted 2 minutes before challenge and then 6 minutes after challenge.
FIGS. 2A-2F summarize the effects of individual compounds on peak minute ventilation (increase in VE), overall increase in 2 minute area under the curve (AUC) which is a cumulative measure of effect, along with compound stability (half-life) in rat and human microsomes.

For C#CCNc1nc(NCCC)nc(N(C)OC)n1.Cl [Compound 5a, O,N-Dimethyl-N-[4-(n-propylamino)-6-(prop-2-ynylamino)-[1,3,5]triazin-2-yl]-hydroxylamine hydrochloride], the bioavailability [1] was 36%, the “duration of the increase in minute ventilation” value (anesthetized rats) was “approximately 2 minutes” and the “increase in minute ventilation above baseline values” (anesthetized rats) was “up to 143%”. For the same compound, the “increase in respiratory rate” value (anesthetized rats) was “up to 42%” and the “increase in tidal volume” value (anesthetized rats) was “up to 73%”.
